Assay results: ChEMBL document CHEMBL3352057, “Novel fluorinated pyrrolo[1,2-a]pyrazine-2,6-dione derivatives: synthesis and anticonvulsant evaluation in animal models of epilepsy” (Bioorg Med Chem, 2014)
The source made the active and inactive calls. No cut-off for these calls is given here.

What was measured:
[1] = system: Rattus norvegicus; assay: Anticonvulsant activity in pilocarpine-induced status prevention Sprague-Dawley rat model assessed as weight change 24 hrs post-first stage 3 seizure of non-protected rat at 200 mg/kg, ip measured after 0.5 hr; format: functional; settings: route intraperitoneal
[2] = system: Mus musculus; assay: Anticonvulsant activity in albino CF1 mouse assessed as protection against maximal electroshock-induced seizures at 100 mg/kg, ip measured after 0.25 hr; format: functional, organism-based; parameters: dose 100 mg/kg
[3] = system: Mus musculus; assay: Anticonvulsant activity in albino CF1 mouse assessed as protection against maximal electroshock-induced seizures at 100 mg/kg, ip measured after 0.5 hr; format: functional, organism-based; parameters: dose 100 mg/kg
[4] = system: Mus musculus; assay: Anticonvulsant activity in albino CF1 mouse assessed as protection against maximal electroshock-induced seizures at 100 mg/kg, ip measured after 1 hr; format: functional, organism-based; parameters: dose 100 mg/kg
[5] = system: Mus musculus; assay: Anticonvulsant activity in albino CF1 mouse assessed as protection against maximal electroshock-induced seizures at 100 mg/kg, ip measured after 4 hrs; format: functional, organism-based; parameters: dose 100 mg/kg
[6] = system: Mus musculus; assay: Anticonvulsant activity in albino CF1 mouse assessed as protection against subcutaneous metrazol-induced seizures at 100 mg/kg, ip measured after 0.5 hr; format: functional, organism-based; parameters: dose 100 mg/kg
[7] = system: Mus musculus; assay: Anticonvulsant activity in albino CF1 mouse assessed as protection against subcutaneous metrazol-induced seizures at 100 mg/kg, ip measured after 4 hrs; format: functional, organism-based; parameters: dose 100 mg/kg
[8] = system: Mus musculus; assay: Neurotoxicity in albino CF1 mouse at 100 mg/kg, ip measured after 0.25 hr; format: toxicity, organism-based; parameters: dose 100 mg/kg, route intraperitoneal; settings: in vivo
[9] = system: Mus musculus; assay: Neurotoxicity in albino CF1 mouse at 100 mg/kg, ip measured after 0.5 hr; format: toxicity, organism-based; parameters: dose 100 mg/kg, route intraperitoneal; settings: in vivo
[10] = system: Mus musculus; assay: Neurotoxicity in albino CF1 mouse at 100 mg/kg, ip measured after 1 hr; format: toxicity, organism-based; parameters: dose 100 mg/kg, route intraperitoneal; settings: in vivo
[11] = system: Mus musculus; assay: Neurotoxicity in albino CF1 mouse at 100 mg/kg, ip measured after 4 hrs; format: toxicity, organism-based; parameters: dose 100 mg/kg, route intraperitoneal; settings: in vivo
[12] = system: Mus musculus; assay: Neurotoxicity in albino CF1 mouse assessed as loss of righting reflex at 100 mg/kg, ip measured after 0.25 hr; format: toxicity, organism-based; parameters: dose 100 mg/kg, route intraperitoneal; settings: in vivo
[13] = system: Mus musculus; assay: Anticonvulsant activity in albino CF1 mouse assessed as protection against subcutaneous metrazol-induced seizures at 300 mg/kg, ip measured after 0.5 hr; format: functional, organism-based; parameters: dose 300 mg/kg
[14] = system: Mus musculus; assay: Anticonvulsant activity in albino CF1 mouse assessed as protection against 32 mA current-induced seizures at 100 mg/kg, ip measured after 0.25 hr; format: functional, organism-based; parameters: dose 100 mg/kg
[15] = system: Mus musculus; assay: Anticonvulsant activity in albino CF1 mouse assessed as protection against 32 mA current-induced seizures at 100 mg/kg, ip measured after 0.5 hr; format: functional, organism-based; parameters: dose 100 mg/kg
[16] = system: Mus musculus; assay: Anticonvulsant activity in albino CF1 mouse assessed as protection against 32 mA current-induced seizures at 100 mg/kg, ip measured after 1 hr; format: functional, organism-based; parameters: dose 100 mg/kg
[17] = system: Mus musculus; assay: Anticonvulsant activity in albino CF1 mouse assessed as protection against 32 mA current-induced seizures at 100 mg/kg, ip measured after 2 hrs; format: functional, organism-based; parameters: dose 100 mg/kg
[18] = system: Mus musculus; assay: Anticonvulsant activity in albino CF1 mouse assessed as protection against 32 mA current-induced seizures at 100 mg/kg, ip measured after 4 hrs; format: functional, organism-based; parameters: dose 100 mg/kg
[19] = system: Mus musculus; assay: Neurotoxicity in 32 mA current-induced seizure albino CF1 mouse model at 100 mg/kg, ip measured after 0.25 hr; format: toxicity, organism-based; parameters: dose 100 mg/kg, route intraperitoneal; settings: in vivo
[20] = system: Mus musculus; assay: Neurotoxicity in 32 mA current-induced seizure albino CF1 mouse model at 100 mg/kg, ip measured after 0.5 hr; format: toxicity, organism-based; parameters: dose 100 mg/kg, route intraperitoneal; settings: in vivo
[21] = system: Mus musculus; assay: Neurotoxicity in 32 mA current-induced seizure albino CF1 mouse model at 100 mg/kg, ip measured after 1 hr; format: toxicity, organism-based; parameters: dose 100 mg/kg, route intraperitoneal; settings: in vivo
[22] = system: Mus musculus; assay: Neurotoxicity in 32 mA current-induced seizure albino CF1 mouse model at 100 mg/kg, ip measured after 2 hrs; format: toxicity, organism-based; parameters: dose 100 mg/kg, route intraperitoneal; settings: in vivo
[23] = system: Mus musculus; assay: Neurotoxicity in 32 mA current-induced seizure albino CF1 mouse model at 100 mg/kg, ip measured after 4 hrs; format: toxicity, organism-based; parameters: dose 100 mg/kg, route intraperitoneal; settings: in vivo
[24] = system: Rattus norvegicus; assay: Anticonvulsant activity in Sprague-Dawley rat assessed as protection against maximal electroshock-induced seizures at 30 mg/kg, po measured after 0.25 hr; format: functional, organism-based; parameters: dose 30 mg/kg
[25] = system: Rattus norvegicus; assay: Anticonvulsant activity in Sprague-Dawley rat assessed as protection against maximal electroshock-induced seizures at 30 mg/kg, po measured after 0.5 hr; format: functional, organism-based; parameters: dose 30 mg/kg
[26] = system: Rattus norvegicus; assay: Anticonvulsant activity in Sprague-Dawley rat assessed as protection against maximal electroshock-induced seizures at 30 mg/kg, po measured after 1 hr; format: functional, organism-based; parameters: dose 30 mg/kg
[27] = system: Rattus norvegicus; assay: Anticonvulsant activity in Sprague-Dawley rat assessed as protection against maximal electroshock-induced seizures at 30 mg/kg, po measured after 2 hrs; format: functional, organism-based; parameters: dose 30 mg/kg
[28] = system: Rattus norvegicus; assay: Anticonvulsant activity in Sprague-Dawley rat assessed as protection against maximal electroshock-induced seizures at 30 mg/kg, po measured after 4 hrs; format: functional, organism-based; parameters: dose 30 mg/kg
[29] = system: Rattus norvegicus; assay: Neurotoxicity in MES Sprague-Dawley rat model at 30 mg/kg, po measured after 0.25 hr; format: toxicity, organism-based; parameters: dose 30 mg/kg, route oral; settings: in vivo
[30] = system: Rattus norvegicus; assay: Neurotoxicity in MES Sprague-Dawley rat model at 30 mg/kg, po measured after 0.5 hr; format: toxicity, organism-based; parameters: dose 30 mg/kg, route oral; settings: in vivo
[31] = system: Rattus norvegicus; assay: Neurotoxicity in MES Sprague-Dawley rat model at 30 mg/kg, po measured after 1 hr; format: toxicity, organism-based; parameters: dose 30 mg/kg, route oral; settings: in vivo
[32] = system: Rattus norvegicus; assay: Neurotoxicity in MES Sprague-Dawley rat model at 30 mg/kg, po measured after 2 hrs; format: toxicity, organism-based; parameters: dose 30 mg/kg, route oral; settings: in vivo
[33] = system: Rattus norvegicus; assay: Neurotoxicity in MES Sprague-Dawley rat model at 30 mg/kg, po measured after 4 hrs; format: toxicity, organism-based; parameters: dose 30 mg/kg, route oral; settings: in vivo
[34] = system: Rattus norvegicus; assay: Anticonvulsant activity in Sprague-Dawley rat assessed as protection against maximal electroshock-induced seizures at 30 mg/kg, ip measured after 0.25 hr; format: functional, organism-based; parameters: dose 30 mg/kg
[35] = system: Rattus norvegicus; assay: Anticonvulsant activity in Sprague-Dawley rat assessed as protection against maximal electroshock-induced seizures at 30 mg/kg, ip measured after 0.5 hr; format: functional, organism-based; parameters: dose 30 mg/kg
[36] = system: Rattus norvegicus; assay: Anticonvulsant activity in Sprague-Dawley rat assessed as protection against maximal electroshock-induced seizures at 30 mg/kg, ip measured after 1 hr; format: functional, organism-based; parameters: dose 30 mg/kg
[37] = system: Rattus norvegicus; assay: Anticonvulsant activity in Sprague-Dawley rat assessed as protection against maximal electroshock-induced seizures at 30 mg/kg, ip measured after 2 hrs; format: functional, organism-based; parameters: dose 30 mg/kg
[38] = system: Rattus norvegicus; assay: Anticonvulsant activity in Sprague-Dawley rat assessed as protection against maximal electroshock-induced seizures at 30 mg/kg, ip measured after 4 hrs; format: functional, organism-based; parameters: dose 30 mg/kg
[39] = system: Rattus norvegicus; assay: Neurotoxicity in MES Sprague-Dawley rat model at 30 mg/kg, ip measured after 0.25 hr; format: toxicity, organism-based; parameters: dose 30 mg/kg, route intraperitoneal; settings: in vivo
[40] = system: Rattus norvegicus; assay: Neurotoxicity in MES Sprague-Dawley rat model at 30 mg/kg, ip measured after 0.5 hr; format: toxicity, organism-based; parameters: dose 30 mg/kg, route intraperitoneal; settings: in vivo
[41] = system: Rattus norvegicus; assay: Neurotoxicity in MES Sprague-Dawley rat model at 30 mg/kg, ip measured after 1 hr; format: toxicity, organism-based; parameters: dose 30 mg/kg, route intraperitoneal; settings: in vivo
[42] = system: Rattus norvegicus; assay: Neurotoxicity in MES Sprague-Dawley rat model at 30 mg/kg, ip measured after 2 hrs; format: toxicity, organism-based; parameters: dose 30 mg/kg, route intraperitoneal; settings: in vivo
[43] = system: Rattus norvegicus; assay: Neurotoxicity in MES Sprague-Dawley rat model at 30 mg/kg, ip measured after 4 hrs; format: toxicity, organism-based; parameters: dose 30 mg/kg, route intraperitoneal; settings: in vivo
[44] = system: Mus musculus; assay: Anticonvulsant activity in ip dosed albino CF1 mouse assessed as protection against maximal electroshock-induced seizures; format: functional
[45] = system: Mus musculus; assay: Anticonvulsant activity in ip dosed albino CF1 mouse assessed as protection against subcutaneous metrazol-induced seizures; format: functional
[46] = Neurotoxicity in ip dosed albino CF1 mouse; format: toxicity, organism-based; settings: in vivo
[47] = Protective index, ratio of TD50 for neurotoxicity in ip dosed albino CF1 mouse to ED50 for anticonvulsant activity in ip dosed MES albino CF1 mouse model; format: toxicity, organism-based; settings: in vivo, read-out: Ratio TD50/ED50
[48] = system: Mus musculus; assay: Anticonvulsant activity in ip dosed albino CF1 mouse assessed as protection against maximal electroshock-induced seizures measured as time to peak effect; format: functional
[49] = system: Mus musculus; assay: Anticonvulsant activity in ip dosed albino CF1 mouse assessed as protection against 32 mA current-induced seizures; format: functional
[50] = Neurotoxicity in ip dosed albino CF1 mouse measured at 0.25 hr post dose; format: toxicity, organism-based; settings: in vivo
[51] = system: Mus musculus; assay: Anticonvulsant activity in ip dosed albino CF1 mouse assessed as protection against 6 Hz current-induced seizures measured as time to peak effect; format: functional
[52] = system: Mus musculus; assay: Anticonvulsant activity in ip dosed corneal kindled albino CF1 mouse seizure model; format: functional
[53] = system: Mus musculus; assay: Anticonvulsant activity in ip dosed corneal kindled albino CF1 mouse seizure model assessed as time to peak effect; format: functional
[54] = system: Rattus norvegicus; assay: Anticonvulsant activity in pilocarpine-induced status prevention Sprague-Dawley rat model assessed as weight change 24 hrs post-first stage 3 seizure of protected rat at 200 mg/kg, ip; format: functional; settings: route intraperitoneal
[55] = system: Mus musculus; assay: Anticonvulsant activity in ip dosed albino CF1 mouse assessed as protection against 6 Hz current-induced seizures; format: functional
[56] = system: Mus musculus; assay: Neurotoxicity in ip dosed 6 Hz current-induced seizure albino CF1 mouse model; format: toxicity, organism-based; settings: in vivo
[57] = Protective index, ratio of TD50 for neurotoxicity in ip dosed albino CF1 mouse to ED50 for anticonvulsant activity in ip dosed 6 Hz current-induced seizure albino CF1 mouse model; format: toxicity, organism-based; settings: in vivo, read-out: Ratio TD50/ED50

Cl.O=C1NC(=O)[C@@H]2CCCN2[C@H]1c1cccc(C(F)(F)F)c1
Activity [1]: -25 g
Activity [2]: Active
Activity [3]: inactive
Activity [4]: Active
Activity [5]: inactive
Activity [6]: inactive
Activity [7]: inactive
Activity [8]: Toxic
Activity [9]: Non-toxic
Activity [10]: Non-toxic
Activity [11]: Non-toxic
Activity [12]: Toxic
Activity [13]: Active
Activity [14]: Active
Activity [15]: Active
Activity [16]: inactive
Activity [17]: inactive
Activity [18]: inactive
Activity [19]: Non-toxic
Activity [20]: Non-toxic
Activity [21]: Non-toxic
Activity [22]: Non-toxic
Activity [23]: Non-toxic
Activity [24]: inactive
Activity [25]: inactive
Activity [26]: inactive
Activity [27]: inactive
Activity [28]: inactive
Activity [29]: Non-toxic
Activity [30]: Non-toxic
Activity [31]: Non-toxic
Activity [32]: Non-toxic
Activity [33]: Non-toxic
Activity [34]: inactive
Activity [35]: inactive
Activity [36]: inactive
Activity [37]: inactive
Activity [38]: inactive
Activity [39]: Non-toxic
Activity [40]: Non-toxic
Activity [41]: Non-toxic
Activity [42]: Non-toxic
Activity [43]: Non-toxic
ED50 [44]: 165 µmol/kg
ED50 [45]: 218 µmol/kg
TD50 [46]: 269 µmol/kg
selectivity ratio [47]: 1.6
Time [48]: 0.25 h
ED50 [49]: 119 µmol/kg
TD50 at 0.25 h [50]: 166 µmol/kg
Time [51]: 0.5 h
ED50 [52]: 116 µmol/kg
Time [53]: 0.25 h
Activity [54]: -3.8 g

CC[C@@H](C(N)=O)N1CCCC1=O
ED50 [55]: 114 µmol/kg
ED50 [56]: 252 µmol/kg
selectivity ratio [57]: > 25.8
Time [51]: 1 h
ED50 [52]: 94 µmol/kg
Time [53]: 0.5 h
